Laboratory results: patent publication US7517840B2, “Optimized perfumery for rinse-off products” (Givaudan Fragrances Corporation, priority 2005, dated 2009)
“Also recorded” adds a separate entry of the source. Like-named read-outs stand apart in the source and are kept apart here.

Assays:
[1] = Calculated pseudo-acceleration (Γ) of odorants in water, water-air and air
From the text: In the analysis of the volatility of odorants, several variables are found to be important. First, the vapor pressure of the odorant is an important measure of its volatility. The product of the odorant's activity coefficient γ in the partition its mole fraction X and its pure vapor pressure value Pv, gives the odorant's relative vapor pressure. A second important factor for volatility is the diffusivity D12 of the odorant in the considered media: water, vapor phase and subsequently air.
Other important variables to consider are the molecular weight Mw, of the odorant and its density in the partition ρl and in the solvent vapor state ρv. The final variable to consider is an energy parameter in the partition state. The energy difference ε12=ε12(polar)−ε12o(non-polar) is proportional to the partition coefficient of an odorant in a polar solvent such as water, and a water immiscible solvent such as octanol, benzene and paraffin liquid. The energy ε12 is called the partition energy and can be correlated to the clogP value of odorants.
The five variables D12, Pv, Mw, ρv and ε12 and the three dimensional variables indicate that there can be 5−3=2 dimensional variables which describe Newton's law. The easiest separation is to break the acceleration vector into 2 dimensional quantities: a frequency or first order rate constant (1/time) and a velocity (distance/time) term.
The velocity group can be formed from the vapor pressure and density. Since pressure has units of mass*distance/distance^2*time^2, and density has units of mass/distance^3, the ratio of the two has units of velocity squared. The square root gives the desired velocity.
The first order rate constant can be formed from the variables Mw, D12 and ε12. Since the partition energy ε12 has dimensions of calories per mole (mass.length^2/mole.time^2) and the diffusivity coefficient D12 has a dimension of distance^2 per time, the ratio yields exactly a molecular weight unit per time t. The energy can be made dimensionless by dividing by the gas constant k and temperature T. The remaining variable D12 can be made to a frequency by dividing by a cross sectional area L^2. A molecular area calculated from the liquid molar volume could represent this area.
Pseudo acceleration values are also closely linked to the ability of an odorant to travel through headspace once it is airborne in addition to its ability to migrate through the water and water-air partitions.

[2] = cited from earlier work
[3] = cited from earlier work; remark: listed apart in the source
[4] = Randebrock 1986; cited from earlier work
[5] = GC-MS headspace release profile of perfume in shampoo, 1/100 dilution in water; assay type: physicochemical; settings: Tropical Fruit Perfume
Description: Experimental Procedure: Individual odorant to be tested was added to 20 g of shampoo formulation (see formula below in Table 4) at 0.1%.
A 10 gram sample of formulation and fragrance was added to an empty 1000 ml pyrex beaker. This beaker was then filled with 1000 ml of 120 F tap water. Beaker with diluted shampoo sample was then immediately placed into a semi-enclosed plexiglass chamber.
Headspace Sampling: Once beaker was placed into chamber a Carboxan SPME field fiber was held at the top-side opening of the chamber over the beaker containing the sample. […] […] Top of plexiglass chamber was held open for entire 5 minutes of headspace sampling.

| SMILES | release category by Γ [1] | ODT ([2]; Table 32, citrus note) | Boiling Point ([3]; Table 33) [deg C.] | GC Abundance ([5]; 20 seconds) | GC Abundance ([5]; 30 seconds) | GC Abundance ([5]; 40 seconds) | GC Abundance ([5]; 50 seconds) | other results |
| --- | --- | --- | --- | --- | --- | --- | --- | --- |
| CC1=CCC(C(C)(C)S)CC1 (stereo not shown) | flash release | 50 ppb or less | 229 |  |  |  |  |  |
| CCCCCCCCCCC=O [1-undecanal] |  |  |  |  |  |  |  | experimental odor detection threshold in air [4]: 0.00054 mg/m^3 |
| CCC=CCCC=CCO [2,6 NONADIEN-1-OL] | sustained release |  |  |  |  |  |  | ODT ([2]; Table 26, cucumber-melon note): 50 ppb or less; odor detection threshold value in water [2]: 1 part per billion |
| CCC=CCCC=CC=O [2,6-NONADIENAL] | flash release |  |  |  |  |  |  | ODT ([2]; Table 26, cucumber-melon note): 50 ppb or less; odor detection threshold values in water [2]: 0.01 ppb |
| CCOC(=O)C(C)CC (stereo not shown) [ETHYL 2-METHYLBUTYRATE, Ethyl 2-methylbutyrate] | flash-release |  |  | 3100 | 3100 | 2000 | 1500 | GC Abundance ([5]; 10 seconds): 3000; exp ODT water ([2]; Booleans database): 0.1-0.3 ppb; ODT ([2]; Table 17, apple note compounds): 50 ppb or less |
| CC(C)=CCCC(C)=CCS [THIOGERANIOL, 3,7-Dimethyl-2,6-octadien-1-thiol] | sustained release | 50 ppb or less | 250 |  |  |  |  | Boiling Point [3]: 250 °C |
| CCCCC/C=C/CCC=O [TRANS-4-DECEN-1-AL] | flash release | 50 ppb or less | 200 |  |  |  |  |  |
| CC(=O)OC1CCCCC1C(C)(C)C (stereo not shown) [VERDOX] | sustained release |  |  | 5000 | 14000 | 18000 | 20000 |  |
| C=C(C)[C@H]1CC=C(C)CC1 [d-LIMONENE, d-1-Methyl-4-isopropenyl-1-cyclohexene] | flash release; also recorded: flash-release |  |  | 7000 | 7000 | 5000 | 4000 | GC Abundance ([5]; 5 seconds): 7000; GC Abundance ([5]; 10 seconds): 7000 |
